# Experimental data reported in patent US9682049B2, “Non-racemic mixtures of various ratios of D- and L-methadone and methods of treating pain using the same” (priority 2015, dated 2017).
# Structures can show the parent of a compound that is named as a salt. Where two headings read alike, the source gives them in different places.
# What was measured:
# [1] = tested on: neuropathic pain; details: Lemberg et al. 2006; cited from earlier work
# [2] = tested on: neuropathic pain; details: cited from earlier work; for placebo-adjusted relief of average daily pain intensity: Morley
# [3] = tested on: patients with neuropathic pain; details: Morley study; cited from earlier work
# [4] = tested on: painful diabetic neuropathy; assay: Changes in average daily pain scores, double-blind randomized crossover study vs placebo; format: in vivo, human
# Procedure: (§1) Potential patients were recruited by advertising and screened via interview, review of health history and medications, physical examination, lab work, and ECG.
# (§2) The average daily pain score and the worst daily pain scores were measured. Patients recorded their pain score four times daily on a scale of 0 to 10. Additionally, pain scores were measured using a Visual Analog Scale (VAS) during weekly visits to the study center.
# [5] = tested on: painful diabetic neuropathy; assay: Changes in VAS scores (SF-MPQ), double-blind randomized crossover study vs placebo; format: in vivo, human
# Procedure: as §1, §2
# VAS is a measurement instrument that measures a characteristic or attitude that is believed to range across a continuum of values. For example, the amount of pain that a patient feels may range across a continuum from no pain to an extreme amount of pain. […] In order to capture this underlying continuum, VAS was devised, and in the present study, VAS was used as described here. (See e.g., D. Gould et al., J. Clin. Nursing, 10: 697-706 (2001)).
# VAS was conducted by using a horizontal line, 100 mm in length, anchored by word descriptors at each end, as illustrated below. Patients marked on a line (as shown below) the point that best represented their perception of pain.
# A VAS score was determined by measuring in millimeters from the left hand end of the line to the point that the patient marked.
# [6] = Solubility of 75/25 D/L methadone HCl drug substance; format: physicochemical
# Source text: General Properties of 75/25 D/L Methadone-HCl Included the Following Physical Characteristics: […]
# [7] = tested on: patients with painful diabetic neuropathy; assay: Patient withdrawal because of side effects in the 3:1 D:L-methadone study; details: terminated the study because of side effects (mostly nausea and vomiting)
# Procedure: Patients were subjected to forceful weekly titration of doses from 15 mg the first week, to 30 mg the second week, and to 40 mg the third and fourth weeks.
# [8] = tested on: neuropathic pain model; details: intrathecal, rats; not reversed by naloxone; cited from earlier work
# [9] = tested on: neuropathic pain; details: small group of patients, high dose; cited from earlier work
compound,measurement,setting,value
"CCC(=O)C(C[C@@H](C)N(C)C)(c1ccccc1)c1ccccc1 [L-methadone, (R)-(−)-methadone]",potency in neuropathic pain,[1],greater potency than other opioids
"CCC(=O)C(CC(C)N(C)C)(c1ccccc1)c1ccccc1 (racemic) [racemic methadone, methadone]",placebo-adjusted relief of average daily pain intensity,[2]; 10 mg of racemic methadone,−3.20
same,placebo-adjusted relief of average daily pain intensity,[2]; 20 mg of racemic methadone,−6.56
same,analgesic effect in neuropathic pain,[2]; Morley et al. 2003,analgesic effect
same,patient withdrawal rate,[3],37%
"CCC(=O)C(CC(C)N(C)C)(c1ccccc1)c1ccccc1 (racemic) [75:25 D:L-methadone, Mixture of 75% (6S)-6-(dimethylamino)-4,4-dipheylhepan-3-one hydrochloride and 25% (6R)-6-(dimethylamino)-4,4-dipheylhepan-3-one hydrochloride]","Change in average daily pain score, Difference in Means vs placebo (95% CI)",[4]; 15 mg,−0.84 (−1.64; −0.04)
same,"Change in average daily pain score, Mean (SD)","[4]; 15 mg, scale of 0 to 10, two clinical sites combined",−0.88 (1.46)
same,"Change in average daily pain score, Difference in Means vs placebo (95% CI)",[4]; 30 mg,−1.14 (−2.30; 0.02)
same,"Change in average daily pain score, Mean (SD)",[4]; 30 mg,−1.41 (1.87)
same,"Change in average daily pain score, Difference in Means vs placebo (95% CI)",[4]; 40 mg (1st Week),−1.08 (−2.20; 0.03)
same,"Change in average daily pain score, Mean (SD)",[4]; 40 mg (1st Week),−1.57 (1.98)
same,"Change in average daily pain score, Difference in Means vs placebo (95% CI)",[4]; 40 mg (2nd Week),−1.17 (−2.28; −0.06)
same,"Change in average daily pain score, Mean (SD)",[4]; 40 mg (2nd Week),−1.73 (2.01)
same,"Change in average daily pain score, Difference in Means vs placebo (95% CI)",[4]; 40 mg (Both Weeks),−1.13 (−1.88; −0.38)
same,"Change in average daily pain score, Mean (SD)",[4]; 40 mg (Both Weeks),−1.65 (1.97)
same,"Change in average daily pain score, Difference in Means vs placebo (95% CI)",[4]; 15-30 mg Combined,−0.99 (1.67; −0.31)
same,"Change in average daily pain score, Mean (SD)",[4]; 15-30 mg Combined,−1.14 (1.67)
same,"Change in VAS score (SF-MPQ), median",[5]; 15 mg,−7.0
same,"Change in VAS score, difference in means vs placebo (95% CI)",[5]; 15 mg,−10.1 (−21.0; 0.9)
same,"Change in VAS score (SF-MPQ), mean","[5]; 15 mg, VAS 100 mm line, primary efficacy population",−12.8
same,"Change in VAS score (SF-MPQ), mean",[5]; 30 mg,−14.9
same,"Change in VAS score (SF-MPQ), median",[5]; 30 mg,−8.0
same,"Change in VAS score, difference in means vs placebo (95% CI)",[5]; 30 mg,−6.3 (−17.4; 4.9)
same,"Change in VAS score (SF-MPQ), mean",[5]; 40 mg (1st Week),−19.5
same,"Change in VAS score (SF-MPQ), median",[5]; 40 mg (1st Week),−13.0
same,"Change in VAS score, difference in means vs placebo (95% CI)",[5]; 40 mg (1st Week),−10.5 (−19.6; −1.4)
same,"Change in VAS score (SF-MPQ), mean",[5]; 40 mg (2nd Week),−20.7
same,"Change in VAS score (SF-MPQ), median",[5]; 40 mg (2nd Week),−10.0
same,"Change in VAS score, difference in means vs placebo (95% CI)",[5]; 40 mg (2nd Week),−8.1 (−18.3; 2.2)
same,"Change in VAS score (SF-MPQ), mean",[5]; 40 mg (Both Weeks),−20.1
same,"Change in VAS score (SF-MPQ), median",[5]; 40 mg (Both Weeks),−12.0
same,"Change in VAS score, difference in means vs placebo (95% CI)",[5]; 40 mg (Both Weeks),−9.3 (−15.8; − 2.8)
same,"Change in VAS score (SF-MPQ), mean","[5]; 15-30 mg (Combined), pooled",−13.9
same,"Change in VAS score (SF-MPQ), median","[5]; 15-30 mg (Combined), pooled",−8.0
same,"Change in VAS score, difference in means vs placebo (95% CI)","[5]; 15-30 mg (Combined), pooled",−8.1 (−15.6; −0.6)
same,placebo-adjusted relief of average daily pain intensity,[5]; lowest tested dose (15 mg) of the 3:1 mixture,−10.1
same,placebo-adjusted relief of average daily pain intensity compared with 10 mg of racemic methadone,[5]; vs Morley 10 mg racemic methadone,3 times better
same,placebo-adjusted relief of average daily pain intensity compared with 20 mg of racemic methadone,[5]; vs Morley 20 mg racemic methadone,54 % better
same,Solubility,[6]; alcohols,readily soluble
same,Solubility,[6]; ether,practically insoluble
same,Solubility,[6]; methylene chloride,readily soluble
same,Solubility,[6]; water,readily soluble
same,patient withdrawal rate,[7],17%
"CCC(=O)C(C[C@H](C)N(C)C)(c1ccccc1)c1ccccc1 [D-methadone, (S)-(+)-methadone]",antinociception,[8],produced antinociception
same,potency in neuropathic pain,[1],inactive
same,analgesic response,[9],no analgesic response
